# Residues, ends and D or L forms follow the SMILES beside them.
# Experiments:
# Type in all cases: cell-based, Acinetobacter baumannii
# AB5075 = assay: Membrane depolarization assay (DiSC3(5)); settings: 50 µg/mL, DiSC3(5) fluorescence, 20 min, versus untreated bacteria
# Description: A membrane depolarization assay was performed using a cationic dye, 3,3′-dipropylthiadicarbocyanine iodide (DiSC3(5)) as we previously described, with some modifications. Briefly, AB5075 was grown overnight on a Tryptic Soy agar, and opaque colonies were emulsified in DPBS (Gibco) until the 0.5 McFarland standard was achieved (~1 × 10^8 CFU/mL). A bacterial suspension of 4 × 10^7 CFU/mL was prepared and washed twice with DPBS, and then bacteria were resuspended in DPBS containing 10 µg/mL of DiSC3(5). An aliquot of 100 µL of the bacteria DiSC3(5) suspension was added to a black 96-well flat plate (Ultracruz Polypropylene Microplate sc-204462, Santacruz, CA, USA). The plate was incubated at room temperature in BioTek Cytation 5 and monitored until fluorescence stopped decreasing. An aliquot of 100 µL of peptide or DPBS (the untreated control) was added to each well (a final concentration of peptide of 50 µg/mL) and the plate was immediately returned to the plate reader. […] Readings were taken every 15 s for 20 min (excitation = 622 nm; emission = 670 nm). The experiment was repeated twice.
# [1] = test system: A. baumannii BAA-1710 and -1794 biofilm; assay: Antibiofilm screening at 100 µg/mL (crystal violet); settings: n = 3
# Description: As the first step, antibacterial screening (n = 3) was performed on MDR strains of A. baumannii listed in Table 5, with each peptide at a concentration of 100 μg/mL in MHB. […] Growth was measured spectrophotometrically at OD600 nm at 20–24 h, following the CLSI protocol for A. baumannii incubation for MIC [99]. Similarly, biofilm formation was first established for tested A. baumannii strains using our crystal violet-staining protocol described below. Then, antibiofilm screening (n = 3) of each peptide against biofilm formation of A. baumannii was determined at 100 μg/mL. Peptides that were active in this screen were then analyzed in more detail as described below. Positive controls were used, such as LL-37 and polymyxin B [18, 66, 67]. Samples containing only the medium were considered as the sterility control whereas samples containing only bacteria served as the growth control.
# The MBIC assay measures the lowest concentration of a compound that inhibits the biofilm formation of an organism. […] After the incubation of bacteria with AMPs, OD600 nm was measured for approximate bacterial growth. […] After that, 200 µL of 33% glacial acetic acid was added to resolubilize the stain, and biofilm mass was measured by a spectrophotometric reading at OD590. […]
# [2] = test system: A. baumannii strains AB5075, BAA-1710, -1794, and -1800; settings: summary over MDR A. baumannii strains of Table 3
# Description: Minimum inhibitory concentration (n = 3) was performed according to the CLSI protocols with a minor modification, in which Difco Mueller Hinton broth (BD 275730, Franklin Lakes, NJ, USA) was used instead of cation-adjusted Mueller Hinton broth following Wiegand et al.’s standardized protocol for testing AMPs. Bacteria were grown overnight in an opaque colony, and the concentration was determined using McFarland’s technique. An aliquot of 50 µL of 1 × 10^6 CFU/mL of bacteria was incubated with a decreasing series of peptide concentration to achieve a final bacterial concentration of 5 × 10^5 CFU/mL at 37 °C 5% CO2 for 20–24 h in Difco Mueller Hinton broth. Dilutions were performed in a 96-well polypropylene plate (Corning 3879, Corning, NY, USA). This is critical to avoid peptide binding to the plate. Results were obtained by measuring bacterial growth at OD600 nm. LL-37 and polymyxin B were used as positive controls. Samples containing only the medium and medium with peptides were used as the sterility controls and samples containing only bacteria in MHB served as the growth control. Each experiment was performed twice, and one representative experiment is shown.
compound,measurement,setting,value
"CC[C@H](C)CCCCC(=O)N[C@@H](CCN)C(=O)N[C@H](C(=O)N[C@@H](CCN)C(=O)N[C@H]1CCNC(=O)[C@H]([C@@H](C)O)NC(=O)[C@H](CCN)NC(=O)[C@H](CCN)NC(=O)[C@H](CC(C)C)NC(=O)[C@@H](Cc2ccccc2)NC(=O)[C@H](CCN)NC1=O)[C@@H](C)O [Polymyxin B] (HELM PEPTIDE1{[CC[C@H](C)CCCCC(=O)[*:2]].[Dab].T.[Dab].[Dab].[Dab].[dF].L.[Dab].[Dab].T}$PEPTIDE1,PEPTIDE1,5:R3-11:R2$$$V2.0; N-terminus assumed; bridges inferred)",Membrane depolarization,AB5075,significant membrane depolarization effect
same,Biofilm inhibition in screen,[1],complete biofilm inhibition
same,MIC across the tested strains,[2],0.25 to 0.5 µg/mL
